According to article PMC8198181, “Evaluation of Substituted N-Phenylpiperazine Analogs as D3 vs. D2 Dopamine Receptor Subtype Selective Ligands” (Molecules, 2021):

How the values were obtained:
D1 dopamine receptor = D1 dopamine receptor (Homo sapiens, UniProt P21728); assay: PDSP off-target binding; conditions: in words
Source text: (§1) Further evaluation of the off-target binding of compound 6a was provided by the Psychoactive Drug Screening Program (PDSP) for a range of receptors including serotonin receptor subtypes, α-adrenergic receptor subtypes, β-adrenergic receptor subtypes, histaminergic receptor subtypes, muscarinic receptor subtypes, opioid receptor subtypes and the two sigma receptor subtypes.

sigma-1 receptor = sigma-1 receptor (Homo sapiens, UniProt Q99720); assay: PDSP off-target binding; conditions: read-out: binding affinity sigma-1 (PDSP)
sigma-1 receptor, sequence (Q99720 whole entry, species assumed): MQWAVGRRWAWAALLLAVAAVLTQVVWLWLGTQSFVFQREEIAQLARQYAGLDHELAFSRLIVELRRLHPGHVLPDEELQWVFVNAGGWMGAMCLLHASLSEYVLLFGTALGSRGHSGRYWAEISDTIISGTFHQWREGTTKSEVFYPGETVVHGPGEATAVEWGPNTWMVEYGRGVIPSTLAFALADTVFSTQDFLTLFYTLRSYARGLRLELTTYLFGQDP
Source text: as §1

α1a adrenergic receptor = α1a adrenergic receptor (Homo sapiens, UniProt P35348); assay: PDSP off-target binding; conditions: read-out: binding affinity α1a (PDSP)
α1a adrenergic receptor, sequence (P35348 whole entry): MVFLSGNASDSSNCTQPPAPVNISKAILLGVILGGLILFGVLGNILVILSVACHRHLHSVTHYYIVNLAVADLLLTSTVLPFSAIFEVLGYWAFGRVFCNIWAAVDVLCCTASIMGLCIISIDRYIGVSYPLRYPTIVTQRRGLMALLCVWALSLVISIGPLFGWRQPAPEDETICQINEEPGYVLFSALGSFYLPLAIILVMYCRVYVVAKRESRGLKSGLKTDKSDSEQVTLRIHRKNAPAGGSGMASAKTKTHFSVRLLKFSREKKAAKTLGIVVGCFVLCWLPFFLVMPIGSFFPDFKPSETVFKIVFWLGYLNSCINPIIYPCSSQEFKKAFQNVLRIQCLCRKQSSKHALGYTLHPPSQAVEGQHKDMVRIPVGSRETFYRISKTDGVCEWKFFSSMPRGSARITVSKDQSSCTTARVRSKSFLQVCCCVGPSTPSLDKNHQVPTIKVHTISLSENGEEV
Source text: as §1

α1b adrenergic receptor = α1b adrenergic receptor (Homo sapiens, UniProt P35368); assay: PDSP off-target binding; conditions: read-out: binding affinity α1b (PDSP)
α1b adrenergic receptor, sequence (P35368 whole entry): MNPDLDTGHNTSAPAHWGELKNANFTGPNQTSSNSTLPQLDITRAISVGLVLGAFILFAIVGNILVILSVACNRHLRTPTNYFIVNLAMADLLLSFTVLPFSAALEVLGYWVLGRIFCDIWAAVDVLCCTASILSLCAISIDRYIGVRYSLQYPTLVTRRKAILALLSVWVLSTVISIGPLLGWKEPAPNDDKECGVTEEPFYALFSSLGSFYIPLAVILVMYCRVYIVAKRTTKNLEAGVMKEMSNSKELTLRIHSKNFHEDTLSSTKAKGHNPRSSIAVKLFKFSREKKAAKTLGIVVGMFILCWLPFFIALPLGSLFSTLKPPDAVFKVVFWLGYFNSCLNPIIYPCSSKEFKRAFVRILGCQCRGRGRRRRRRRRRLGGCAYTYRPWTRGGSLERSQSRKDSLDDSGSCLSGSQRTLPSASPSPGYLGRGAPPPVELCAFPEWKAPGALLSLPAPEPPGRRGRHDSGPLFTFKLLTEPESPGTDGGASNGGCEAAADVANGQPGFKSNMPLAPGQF
Source text: as §1

α2b adrenergic receptor = α2b adrenergic receptor (Homo sapiens, UniProt P18089); assay: PDSP off-target binding; conditions: read-out: binding affinity α2b (PDSP)
α2b adrenergic receptor, sequence (P18089 whole entry): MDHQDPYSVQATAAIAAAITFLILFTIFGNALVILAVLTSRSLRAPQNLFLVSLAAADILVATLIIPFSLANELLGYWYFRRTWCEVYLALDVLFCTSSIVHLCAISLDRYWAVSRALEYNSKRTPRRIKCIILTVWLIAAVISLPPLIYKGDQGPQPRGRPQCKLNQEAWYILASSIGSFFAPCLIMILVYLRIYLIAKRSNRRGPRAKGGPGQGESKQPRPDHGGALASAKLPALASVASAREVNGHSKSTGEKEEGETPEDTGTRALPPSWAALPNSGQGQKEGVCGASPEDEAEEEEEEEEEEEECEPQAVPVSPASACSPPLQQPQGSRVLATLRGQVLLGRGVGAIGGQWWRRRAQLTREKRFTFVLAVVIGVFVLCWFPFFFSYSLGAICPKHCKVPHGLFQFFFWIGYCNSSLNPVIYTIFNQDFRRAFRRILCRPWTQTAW
Source text: as §1

D3 dopamine receptor [1] = target: T1, D3 dopamine receptor (Homo sapiens, UniProt P35462); assay: β-arrestin binding assay (DiscoverX PathHunter, DRD3-U2OS cells); type: cell-based; design: host or cells: U2OS (PathHunter eXpress DRD3-U2OS); conditions: human D3, test compound at 10x Ki, normalized to quinpirole
T1 sequence (P35462 whole entry): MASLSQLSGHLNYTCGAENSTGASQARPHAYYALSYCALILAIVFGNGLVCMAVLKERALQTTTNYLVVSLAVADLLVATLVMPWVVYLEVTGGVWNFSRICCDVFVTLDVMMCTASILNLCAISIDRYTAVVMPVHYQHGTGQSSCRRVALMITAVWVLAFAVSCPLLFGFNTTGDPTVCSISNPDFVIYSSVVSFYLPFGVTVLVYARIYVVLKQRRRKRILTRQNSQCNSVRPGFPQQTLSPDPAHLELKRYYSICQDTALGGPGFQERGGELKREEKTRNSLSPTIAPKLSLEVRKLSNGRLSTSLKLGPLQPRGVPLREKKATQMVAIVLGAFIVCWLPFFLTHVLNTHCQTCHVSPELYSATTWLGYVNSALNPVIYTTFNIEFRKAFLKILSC
Procedure: Quinpirole was used as a reference prototypic full agonist and haloperidol was used as a reference prototypic antagonist.
The β-arrestin binding assay was performed using a DiscoverX Pathhunter® kit according to the manufacturer’s instructions. PathHunter® eXpress β-Arrestin GPCR cells are engineered to co-express the ProLink™ (PK) tagged GPCR and the Enzyme Acceptor (EA) tagged β-Arrestin. Activation of the GPCR-PK induces β-Arrestin-EA recruitment, forcing complementation of the two β-galactosidase enzyme fragments (EA and PK). The resulting functional enzyme hydrolyzes substrate to generate a chemiluminescent signal. DRD3-U2OS cells were seeded according to kit instructions into white plastic 96-well plates (provided with the kit) 48 h prior to the assay in a volume of 100 μL/well using the Cell Plating Reagent (CPR) provided. Vehicle or test drug, diluted in CPR, was added to the designated wells and incubated for 90 min at 37 °C. Working detection solution (a component provided with the kit) was added to the wells and incubated for 1 h in the dark at room temperature. As discussed for the cyclase assay, an Enspire Alpha 2390 Multilabel Reader/Luminometer was used to detect the luminescent signal with haloperidol and quinpirole used as reference antagonist and full agonist, respectively.
Figure 3 Comparison of the Efficacy of Phenylthiophene Analogs for Adenylyl Cyclase Inhibition and β-Arrestin Binding at Human D3 Dopamine Receptors. […] Values were normalized to reference full agonist quinpirole (10,000 nM).

D3 dopamine receptor [2] = target: T1, D3 dopamine receptor
Procedure: Competitive radioligand binding techniques were used to determine the Ki values of ligands at human D2 and D3 dopamine receptors expressed in stably transfected HEK cells (Table 1).
The final radioligand concentration was approximately equal to the Kd value for the binding of the radioligand. […] For each competition curve, triplicates were performed using two concentrations of inhibitor per decade over five orders of magnitude.
The competition curves were modeled for a single binding site using Bs = Bo − ((Bo + L)/(IC50 + L)) where Bs is the amount of ligand bound to receptor and Bo is the amount of ligand bound to receptor in the absence of competitive inhibitor. L is the concentration of the competitive inhibitor. […] The values for Bs and Bo were constrained using experimentally derived values. The IC50 values were converted to equilibrium dissociation constants (Ki) [50, 51]. Mean Ki values ± S.E.M. are reported for at least three independent experiments.

D1 dopamine receptor, sequence (P21728 whole entry): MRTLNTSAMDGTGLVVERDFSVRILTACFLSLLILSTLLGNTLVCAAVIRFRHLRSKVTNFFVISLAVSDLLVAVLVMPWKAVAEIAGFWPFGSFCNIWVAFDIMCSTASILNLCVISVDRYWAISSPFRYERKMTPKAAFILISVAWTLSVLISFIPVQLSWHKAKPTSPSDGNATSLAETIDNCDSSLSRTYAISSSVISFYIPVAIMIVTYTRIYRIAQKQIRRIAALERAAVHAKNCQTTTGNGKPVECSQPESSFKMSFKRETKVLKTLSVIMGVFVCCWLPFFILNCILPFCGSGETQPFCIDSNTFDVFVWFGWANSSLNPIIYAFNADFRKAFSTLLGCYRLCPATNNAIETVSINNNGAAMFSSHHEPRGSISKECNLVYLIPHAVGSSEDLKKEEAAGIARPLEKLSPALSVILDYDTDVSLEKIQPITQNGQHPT

Q: Which “binding affinity D1 (PDSP)” value (D1 dopamine receptor) does the source give for `O=C(NCCCCN1CCN(c2ccccc2F)CC1)c1ccc(-c2ccsc2)cc1` [Compound 6a] here?
A: The value was “low affinity binding”.

Q: What about the Ki (sigma-1 receptor) of the same compound?
A: Its Ki is > 175 nM.

Q: And the Ki (α1a adrenergic receptor)?
A: The Ki was 9.8 nM.

Q: What about the Ki (α1b adrenergic receptor) of the same compound?
A: The Ki was > 100 nM.

Q: What about the Ki (α2b adrenergic receptor) of the same compound?
A: Its Ki is > 100 nM.

Q: What about the “efficacy in β-arrestin binding assay” value (D3 dopamine receptor [1]) of the same compound?
A: Its value is “weak partial agonists”.

Q: And the Ki (D3 dopamine receptor [2])?
A: Its Ki is 1.4 ± 0.2 nM.

Q: What about the “D2:D3 Selectivity” value (D3 dopamine receptor [2]; ratio of D2 and D3 Ki values (Table 1)) of the same compound?
A: The value was 467.
